Assay results as given in ChEMBL document CHEMBL3351732, “Potent bisimidazole-based HCV NS5A inhibitors bearing annulated tricyclic motifs” (Bioorg Med Chem Lett, 2014).

What was measured:
Hepatitis C virus [1] = assay: Antiviral activity against HCV genotype 1a infected in human HuH7 cells by luciferase reporter gene assay; format: functional, cell-based, Hepacivirus hominis; settings: subtype 1a, Huh-7
Hepatitis C virus [2] = assay: Antiviral activity against HCV genotype 1b infected in human HuH7 cells by luciferase reporter gene assay; format: functional, cell-based, Hepacivirus hominis; settings: Huh-7
Hepatitis C virus [3] = assay: Antiviral activity against HCV genotype 3a infected in human HuH7 cells by luciferase reporter gene assay; format: functional, cell-based, Hepacivirus hominis; settings: Huh-7
[4] = Clearance in Sprague-Dawley rat at 1 mg/kg, iv; format: ADME, organism-based; design: dose 1 mg/kg, route intravenous; settings: Sprague-Dawley, in vivo
[5] = Volume of distribution at steady state in Sprague-Dawley rat at 1 mg/kg, iv; format: ADME, organism-based; design: dose 1 mg/kg, route intravenous; settings: in vivo, read-out: Vdss
[6] = Half life in Sprague-Dawley rat at 1 mg/kg, iv; format: ADME, organism-based; design: dose 1 mg/kg, route intravenous; settings: in vivo
[7] = AUC(last) in Sprague-Dawley rat at 1 mg/kg, iv; format: ADME, organism-based, Plasma; design: time 0 - last, dose 1 mg/kg, route intravenous; settings: Sprague-Dawley, plasma
[8] = Tmax in Sprague-Dawley rat at 5 mg/kg, po; format: ADME, organism-based; design: dose 5 mg/kg, route oral; settings: in vivo
[9] = Cmax in Sprague-Dawley rat at 5 mg/kg, po; format: ADME, organism-based; design: dose 5 mg/kg, route oral; settings: in vivo
[10] = AUC(last) in Sprague-Dawley rat at 5 mg/kg, po; format: ADME, organism-based; design: dose 5 mg/kg, route oral, time 0 - last; settings: plasma
[11] = Oral bioavailability in Sprague-Dawley rat at 5 mg/kg; format: ADME, organism-based; settings: in vivo
[12] = Drug level in Sprague-Dawley rat liver at 5 mg/kg, po measured 4 hrs post dose; format: ADME, organism-based; design: dose 5 mg/kg, route oral; settings: read-out: Drug uptake
[13] = Plasma concentration in Sprague-Dawley rat at 5 mg/kg, po measured 4 hrs post dose; format: ADME, organism-based; design: dose 5 mg/kg, route oral
[14] = Tmax in Sprague-Dawley rat at 75 mg/kg, po; format: ADME, organism-based; design: dose 75 mg/kg, route oral; settings: in vivo
[15] = Cmax in Sprague-Dawley rat at 75 mg/kg, po; format: ADME, organism-based; design: dose 75 mg/kg, route oral; settings: in vivo
[16] = AUC(last) in Sprague-Dawley rat at 75 mg/kg, po; format: ADME, organism-based; design: time 0 - last, dose 75 mg/kg, route oral; settings: plasma
[17] = Tmax in Sprague-Dawley rat at 250 mg/kg, po; format: ADME, organism-based; design: dose 250 mg/kg, route oral; settings: in vivo
[18] = Cmax in Sprague-Dawley rat at 250 mg/kg, po; format: ADME, organism-based; design: dose 250 mg/kg, route oral; settings: in vivo
[19] = AUC(last) in Sprague-Dawley rat at 250 mg/kg, po; format: ADME, organism-based; design: time 0 - last, dose 250 mg/kg, route oral; settings: plasma
[20] = Clearance in beagle dog at 1 mg/kg, iv; format: ADME, organism-based, Canis lupus familiaris; design: dose 1 mg/kg, route intravenous; settings: in vivo
[21] = Volume of distribution at steady state in beagle dog at 1 mg/kg, iv; format: ADME, organism-based, Canis lupus familiaris; design: dose 1 mg/kg, route intravenous; settings: in vivo, read-out: Vdss
[22] = Half life in beagle dog at 1 mg/kg, iv; format: ADME, organism-based, Canis lupus familiaris; design: dose 1 mg/kg, route intravenous; settings: in vivo
[23] = AUC(last) in beagle dog at 1 mg/kg, iv; format: ADME, organism-based, Canis lupus familiaris; design: time 0 - last, dose 1 mg/kg, route intravenous; settings: plasma
[24] = Tmax in beagle dog at 5 mg/kg, po; format: ADME, organism-based, Canis lupus familiaris; design: dose 5 mg/kg, route oral; settings: in vivo
[25] = Cmax in beagle dog at 5 mg/kg, po; format: ADME, organism-based, Canis lupus familiaris; design: dose 5 mg/kg, route oral; settings: in vivo
[26] = AUC(last) in beagle dog at 5 mg/kg, po; format: ADME, organism-based, Canis lupus familiaris; design: time 0 - last, dose 5 mg/kg, route oral; settings: plasma
[27] = Oral bioavailability in beagle dog at 5 mg/kg; format: ADME, organism-based, Canis lupus familiaris; settings: in vivo
[28] = Tmax in beagle dog at 75 mg/kg, po; format: ADME, organism-based, Canis lupus familiaris; design: dose 75 mg/kg, route oral; settings: in vivo
[29] = Cmax in beagle dog at 75 mg/kg, po; format: ADME, organism-based, Canis lupus familiaris; design: dose 75 mg/kg, route oral; settings: in vivo
[30] = AUC(last) in beagle dog at 75 mg/kg, po; format: ADME, organism-based, Canis lupus familiaris; design: time 0 - last, dose 75 mg/kg, route oral; settings: plasma
[31] = Tmax in beagle dog at 250 mg/kg, po; format: ADME, organism-based, Canis lupus familiaris; design: dose 250 mg/kg, route oral; settings: in vivo
[32] = Cmax in beagle dog at 250 mg/kg, po; format: ADME, organism-based, Canis lupus familiaris; design: dose 250 mg/kg, route oral; settings: in vivo
[33] = AUC(last) in beagle dog at 250 mg/kg, po; format: ADME, organism-based, Canis lupus familiaris; design: dose 250 mg/kg, route oral, time 0 - last; settings: plasma
[34] = Clearance in cynomolgus monkey at 1 mg/kg, iv; format: ADME, organism-based, Macaca fascicularis; design: dose 1 mg/kg, route intravenous; settings: in vivo
[35] = Volume of distribution at steady state in cynomolgus monkey at 1 mg/kg, iv; format: ADME, organism-based, Macaca fascicularis; design: dose 1 mg/kg, route intravenous; settings: in vivo, read-out: Vdss
[36] = Half life in cynomolgus monkey at 1 mg/kg, iv; format: ADME, organism-based, Macaca fascicularis; design: dose 1 mg/kg, route intravenous; settings: in vivo
[37] = AUC(last) in cynomolgus monkey at 1 mg/kg, iv; format: ADME, organism-based, Macaca fascicularis; design: time 0 - last, dose 1 mg/kg, route intravenous; settings: plasma
[38] = Tmax in cynomolgus monkey at 5 mg/kg, po; format: ADME, organism-based, Macaca fascicularis; design: dose 5 mg/kg, route oral; settings: in vivo
[39] = Cmax in cynomolgus monkey at 5 mg/kg, po; format: ADME, organism-based, Macaca fascicularis; design: dose 5 mg/kg, route oral; settings: in vivo
[40] = AUC(last) in cynomolgus monkey at 5 mg/kg, po; format: ADME, organism-based, Macaca fascicularis; design: time 0 - last, dose 5 mg/kg, route oral; settings: plasma
[41] = Oral bioavailability in cynomolgus monkey at 5 mg/kg; format: ADME, organism-based, Macaca fascicularis; settings: in vivo
[42] = Tmax in cynomolgus monkey at 75 mg/kg, po; format: ADME, organism-based, Macaca fascicularis; design: dose 75 mg/kg, route oral; settings: in vivo
[43] = Cmax in cynomolgus monkey at 75 mg/kg, po; format: ADME, organism-based, Macaca fascicularis; design: dose 75 mg/kg, route oral; settings: in vivo
[44] = AUC(last) in cynomolgus monkey at 75 mg/kg, po; format: ADME, organism-based, Macaca fascicularis; design: time 0 - last, dose 75 mg/kg, route oral; settings: plasma
[45] = Tmax in cynomolgus monkey at 250 mg/kg, po; format: ADME, organism-based, Macaca fascicularis; design: dose 250 mg/kg, route oral; settings: in vivo
[46] = Cmax in cynomolgus monkey at 250 mg/kg, po; format: ADME, organism-based, Macaca fascicularis; design: dose 250 mg/kg, route oral; settings: in vivo
[47] = AUC(last) in cynomolgus monkey at 250 mg/kg, po; format: ADME, organism-based, Macaca fascicularis; design: time 0 - last, dose 250 mg/kg, route oral; settings: plasma
Hepatitis C virus [48] = assay: Antiviral activity against HCV genotype 4a infected in human HuH7 cells by luciferase reporter gene assay; format: functional, cell-based, Hepacivirus hominis; settings: Huh-7
Hepatitis C virus [49] = assay: Antiviral activity against HCV genotype 5a infected in human HuH7 cells by luciferase reporter gene assay; format: functional, cell-based, Hepacivirus hominis; settings: Huh-7
Hepatitis C virus [50] = assay: Antiviral activity against HCV genotype 6a infected in human HuH7 cells by luciferase reporter gene assay; format: functional, cell-based, Hepacivirus hominis; settings: Huh-7
[51] = Tmax in Sprague-Dawley rat at 5 mg/kg, po formulated with 5%MC, 95% saline; format: ADME, organism-based; design: dose 5 mg/kg, route oral; settings: in vivo
[52] = Cmax in Sprague-Dawley rat at 5 mg/kg, po formulated with 5%MC, 95% saline; format: ADME, organism-based; design: dose 5 mg/kg, route oral; settings: in vivo
[53] = AUC(last) in Sprague-Dawley rat at 5 mg/kg, po formulated with 5%MC, 95% saline; format: ADME, organism-based; design: time 0 - last, dose 5 mg/kg, route oral; settings: plasma
[54] = Oral bioavailability in Sprague-Dawley rat at 5 mg/kg formulated with 5%MC, 95% saline; format: ADME, organism-based; settings: in vivo

For `COC(=O)N[C@H](C(=O)N1CCC[C@H]1c1ncc(-c2ccc3c(c2)Oc2ccc(-c4cnc([C@@H]5CCCN5C(=O)[C@@H](NC(=O)OC)C(C)C)[nH]4)cc2C3(C)C)[nH]1)C(C)C`, the EC50 (Hepatitis C virus [1]) was 0.073 nM, the EC50 (Hepatitis C virus [2]) was 0.011 nM and the EC50 (Hepatitis C virus [3]) was 0.29 nM. For the same molecule, the clearance [4] was 17.8 mL/min/kg, the Vd [5] was 1.8 L/kg and the half-life [6] was 1.41 h. It also gave an AUC(0-t) [7] of 926 ng·h/mL, a Tmax [8] of 3 h and a Cmax [9] of 874 ng/mL. The AUC(0-t) [10] was 5250 ng·h/mL, the bioavailability [11] was 112% and the concentration at 4 h [12] was 2610 ng/mL. The concentration at 4 h [13] was 833 ng/mL, the Tmax [14] was 4 h and the Cmax [15] was 12400 ng/mL. It also gave an AUC(0-t) [16] of 137000 ng·h/mL, a Tmax [17] of 3.33 h and a Cmax [18] of 16200 ng/mL. It also gave an AUC(0-t) [19] of 187000 ng·h/mL, a clearance [20] of 2.67 mL/min/kg and a Vd [21] of 0.74 L/kg. The half-life [22] was 3.77 h, the AUC(0-t) [23] was 6180 ng·h/mL and the Tmax [24] was 1 h. It also gave a Cmax [25] of 2760 ng/mL, an AUC(0-t) [26] of 16500 ng·h/mL and a bioavailability [27] of 53.4%. The Tmax [28] was 4 h, the Cmax [29] was 6400 ng/mL and the AUC(0-t) [30] was 83000 ng·h/mL. For the same molecule, the Tmax [31] was 5 h, the Cmax [32] was 12200 ng/mL and the AUC(0-t) [33] was 192000 ng·h/mL. For the same molecule, the clearance [34] was 7 mL/min/kg, the Vd [35] was 1.33 L/kg and the half-life [36] was 3.56 h. For the same molecule, the AUC(0-t) [37] was 2380 ng·h/mL, the Tmax [38] was 3 h and the Cmax [39] was 486 ng/mL. The AUC(0-t) [40] was 3370 ng·h/mL, the bioavailability [41] was 28.4% and the Tmax [42] was 3 h. For the same molecule, the Cmax [43] was 3600 ng/mL, the AUC(0-t) [44] was 17800 ng·h/mL and the Tmax [45] was 4 h. The Cmax [46] was 8100 ng/mL, the AUC(0-t) [47] was 46600 ng·h/mL and the EC50 (Hepatitis C virus [48]) was 0.025 nM. For the same molecule, the EC50 (Hepatitis C virus [49]) was 0.017 nM, the EC50 (Hepatitis C virus [50]) was 0.062 nM and the Tmax [51] was 0.5 h. It also gave a Cmax [52] of 761 ng/mL, an AUC(0-t) [53] of 4120 ng·h/mL and a bioavailability [54] of 88.9%.
